Results on one compound are retold here after patent publication US9649305B2, “PFKFB3 inhibitor and methods of use as an anti-cancer therapeutic” (ADVANCED CANCER THERAPEUTICS, LLC, priority 2012, dated 2017).

This assay deals with Jurkat cell line (leukemia cell line). The assay can be described thus: Toxicity / cell growth of Jurkat cell line. Type of assay: cell-based. As to conditions: Homo sapiens. On the procedure:
The ability of PFK-158 to kill or inhibit the proliferation of cancer cells was measured using either the MTT assay, the alamarBlue® assay (Invitrogen, Grand Island, N.Y.), or the CellTiter Glo™ assay (Promega, Madison, Wis.) using 48 or 72 hours exposure.
Cells of the desired tumor cell line were plated at 2×10^5 cells/ml in 96 well plates. Twice the indicated concentrations of the compounds of the invention were added to cells the following day in an equal volume of media. 72 hours later, cells were lysed and subjected to ATP determination using the CellTiter-Glo™ Luminescent Cell Viability Assay kit. Experiments were performed in triplicate. When using the MTT assay or the alamarBlue® assay, the experimental conditions are essentially similar; at the end of the incubation period, 20 microliters of the MTT solution is added per well and the samples are incubated for an additional four hours, rinsed, and absorbance at 570 nm was measured. Results for the inhibition of cell proliferation are reported as the IC50 (the concentration resulting in 50% inhibition of proliferation of the cell population) and are listed in Table 5 below. Cell lines include lung, colon, prostate, breast, ovarian, and pancreatic cancer lines.

The structures appear in SMILES notation. Like-named read-outs stand apart in the source and are kept apart here.

Regarding `O=C(/C=C/c1ccc2ccc(C(F)(F)F)cc2n1)c1ccncc1` [PFK-158, (E)-1-(pyridyn-4-yl)-3-(7-(trifluoromethyl)quinolin-2-yl)-prop-2-en-1-one], the half-maximal inhibitory concentration (IC50) (in general, the concentration at which inhibition is half-maximal) runs as follows: (Jurkat, Table 1, read-out: IC50, toxicity of Jurkat cell line (leukemia cell line)) 330 ± 100 nM; (Table 6, Jurkat cells, read-out: IC50 Cell Growth) 328 ± 15 nM.
